Results taken from doi:10.1101/2021.10.07.463234v2 (biorxiv, 2021).
Structures can show the parent of a compound that is named as a salt. Bridge positions count the residues as written; N and C are the ends. Peptide text beside a SMILES is read from it.

Molecular target: SARS-CoV-2 Mac1 (Severe acute respiratory syndrome coronavirus 2, UniProt P0DTD1)
Test: biochemical
Details: 100 µM; inhibitor

Row | Structure (SMILES) | %inhibition [%]
1 | C/C(=C\C(=O)OCCCCCCCCC(=O)O)C[C@@H]1OC[C@H](C[C@@H]2O[C@H]2[C@@H](C)[C@H](C)O)[C@@H](O)[C@H]1O [Mupirocin] | 0
2 | COc1ccc(C[C@@H](C)NC[C@H](O)c2ccc(O)c(NC=O)c2)cc1 [Arformoterol Tartrate] | 8.751
3 | CC(C)(C)c1nc(-c2cccc(NS(=O)(=O)c3c(F)cccc3F)c2F)c(-c2ccnc(N)n2)s1 [Dabrafenib (GSK2118436)] | 34.76
4 | COc1cc(O)c(C(=O)Nc2nc(C(=O)NCCN(C(C)C)C(C)C)cs2)cc1OC [Acotiamide hydrochloride] | 0
5 | COc1c(N2C[C@@H]3CCCN[C@@H]3C2)c(F)cc2c(=O)c(C(=O)O)cn(C3CC3)c12 [Moxifloxacin] | 6.66
6 | COc1ccnc(C[S+]([O-])c2nc3cc(OC(F)F)ccc3[nH]2)c1OC (stereo not drawn) [Pantoprazole] | 6.936
7 | CC(C)N(CCC(C(N)=O)(c1ccccc1)c1ccccn1)C(C)C (stereo not drawn) [Disopyramide Phosphate] | 0
8 | O=C1O[C@H]([C@@H](O)CO)C(O)=C1O [Sodium ascorbate] | 0
9 | O=C(O)c1ccccc1 [Sodium benzoate] | 0
10 | NC(=O)c1cccc2cn(-c3ccc([C@@H]4CCCNC4)cc3)nc12 [Niraparib (MK-4827) tosylate] | 14.33
11 | CCc1cc2c(cc1CC)CC(NC[C@H](O)c1ccc(O)c3[nH]c(=O)ccc13)C2 [Indacaterol] | 1.05
12 | CC(C)NCC(O)COc1ccc(CCOCC2CC2)cc1 (stereo not drawn) [Betaxolol HCl] | 10.86

Same assay, conditions: read-out: %inhibition

Row | Structure (SMILES) | inhibition at 100 µM [%]
13 | CC(C)C[C@H](NC(=O)CNC(=O)c1cc(Cl)ccc1Cl)B1OC(=O)CC(CC(=O)O)(C(=O)O)O1 (stereo partly drawn) [Ixazomib Citrate (MLN9708)] | 0
14 | CC(=O)N(CC(O)CN(C(C)=O)c1c(I)c(C(=O)NC[C@@H](O)CO)c(I)c(C(=O)NC[C@@H](O)CO)c1I)c1c(I)c(C(=O)NC[C@@H](O)CO)c(I)c(C(=O)NC[C@@H](O)CO)c1I [Iodixanol] | 0.797
15 | CCN(C(=O)c1c(O)c2c(Cl)cccc2n(C)c1=O)c1ccccc1 [Laquinimod] | 22.6
16 | CC(C)[C@H](N)C(=O)OCCOCn1cnc2c(=O)nc(N)[nH]c21 [Valaciclovir HCl] | 39.4
17 | CC[C@H](NC(=O)[C@H](C)NC)C(=O)N1C[C@@H](O)C[C@H]1Cc1c(-c2[nH]c3cc(F)ccc3c2C[C@@H]2C[C@H](O)CN2C(=O)[C@H](CC)NC(=O)[C@H](C)NC)[nH]c2cc(F)ccc12 [Birinapant] | 3.17
18 | CC(C)[C@H]1C(=O)N[C@@H](CCCN=C(N)N)C(=O)NCC(=O)N[C@@H](CC(=O)O)C(=O)N[C@H](Cc2ccccc2)C(=O)N1C [Cilengitide?trifluoroacetate] | 10.8
19 | CC(C)C(=O)Nc1ccc([N+](=O)[O-])c(C(F)(F)F)c1 [Flutamide] | 0
20 | COC(=O)C1=C(C)NC(C)=C(C(=O)O[C@@H]2CCCN(Cc3ccccc3)C2)[C@@H]1c1cccc([N+](=O)[O-])c1 (racemic) [Benidipine HCl] | 4.77
21 | Cc1c(N)nc([C@H](CC(N)=O)NC[C@H](N)C(N)=O)nc1C(=O)N[C@H](C(=O)N[C@H](C)[C@@H](O)[C@H](C)C(=O)N[C@H](C(=O)NCCc1nc(-c2nc(C(=O)NCCC[S+](C)C)cs2)cs1)[C@@H](C)O)[C@@H](O[C@@H]1O[C@@H](CO)[C@@H](O)[C@H](O)[C@@H]1O[C@H]1O[C@H](CO)[C@@H](O)[C@H](OC(N)=O)[C@@H]1O)c1cnc[nH]1 [Bleomycin sulfate] | 0
22 | O=C1CCc2cc(OCCCCc3nnnn3C3CCCCC3)ccc2N1 [Cilostazol] | 7.33
23 | CC1=C(/C=C/C(C)=C/C=C/C(C)=C\C(=O)O)C(C)(C)CCC1 [Isotretinoin] | 0
24 | CCCCCCCCN=c1ccn(CCCCCCCCCCn2ccc(=NCCCCCCCC)cc2)cc1 [Octenidine Dihydrochloride] | 16
25 | COc1cc2c(Oc3ccc4[nH]c(C)cc4c3F)ncnc2cc1OCCCN1CCCC1 [Cediranib (AZD2171)] | 51.1
26 | C[C@](N)(Cc1ccc(O)c(O)c1)C(=O)O [Methyldopa] | 8.62
27 | N#CC(c1ccc(Cl)cc1)c1c(Cl)cc(-n2ncc(=O)[nH]c2=O)cc1Cl (stereo not drawn) [Diclazuril] | 0
28 | NCCS(=O)(=O)O [Taurine] | 0
29 | Oc1ccc(O)cc1 [Hydroquinone] | 7.86
30 | CCCCNc1cc(C(=O)O)cc(S(N)(=O)=O)c1Oc1ccccc1 [Bumetanide] | 25.7
31 | C[C@H]1CNCCCN1S(=O)(=O)c1cccc2cncc(F)c12 [Ripasudil (K-115) hydrochloride dihydrate] | 23.9
32 | CCC(=O)O[C@@H]1CC(=O)O[C@H](C)C/C=C/C=C/[C@H](O)[C@H](C)C[C@H](CC=O)[C@H](O[C@@H]2O[C@H](C)[C@@H](O[C@H]3C[C@@](C)(O)[C@@H](OC(=O)CC)[C@H](C)O3)[C@H](N(C)C)[C@H]2O)[C@H]1OC [Midecamycin] | 5.18
33 | C=CC(=O)Nc1cccc(Oc2nc(Nc3ccc(N4CCN(C)CC4)cc3)nc3ccsc23)c1 [Olmutinib (HM61713, BI 1482694)] | 22.3
34 | NC(=O)c1nc(F)cnc1O [Favipiravir (T-705)] | 0.111
35 | Cc1cc(C)cc(OCC2CNC(=O)O2)c1 (stereo not drawn) [Metaxalone] | 0
36 | Nc1nc(NC2CC2)c2ncn([C@H]3C=C[C@@H](CO)C3)c2n1 [Abacavir sulfate] | 0
37 | NCC(=O)CCC(=O)O [5-Aminolevulinic acid HCl] | 7.12
38 | Nc1cc(N2CCCCC2)nc(N)[n+]1OS(=O)(=O)[O-] [Minoxidil sulphate] | 19
39 | COC[C@H]1C[C@@H](c2nc(-c3ccc4c(c3)COc3cc5c(ccc6nc([C@@H]7CC[C@H](C)N7C(=O)[C@@H](NC(=O)OC)C(C)C)[nH]c65)cc3-4)c[nH]2)N(C(=O)[C@H](NC(=O)OC)c2ccccc2)C1 [Velpatasvir] | 3.54

Row | Structure (SMILES) | inhibition at 100 µM [%]
40 | S=C(NCc1ccc2c(c1)OCO2)N1CCN(c2ncnc3c2oc2ccccc23)CC1 [Amuvatinib (MP-470)] | 24.8
41 | Nc1nc(=O)n([C@@H]2CS[C@H](CO)O2)cc1F [Emtricitabine] | 0
42 | CO[C@@]1(NC(=O)C(C(=O)O)c2ccc(O)cc2)C(=O)N2C(C(=O)O)=C(CSc3nnnn3C)CO[C@@H]21 (stereo partly drawn) [Latamoxef sodium] | 17
43 | CN[C@H](CC(C)C)C(=O)N[C@H]1C(=O)N[C@@H](CC(N)=O)C(=O)N[C@H]2C(=O)N[C@H]3C(=O)N[C@H](C(=O)N[C@H](C(=O)O)c4cc(O)cc(O)c4-c4cc3ccc4O)[C@H](O)c3ccc(c(Cl)c3)Oc3cc2cc(c3O[C@@H]2O[C@H](CO)[C@@H](O)[C@H](O)[C@H]2O[C@H]2C[C@](C)(N)[C@H](O)[C@H](C)O2)Oc2ccc(cc2Cl)[C@H]1O [Vancomycin HCl] | 0
44 | NCCCC[C@H](NC(=O)[C@@H]1CCCN1C(=O)[C@@H]1CSSC[C@H](NC(=O)CNC(=O)CNC(=O)CN)C(=O)N[C@@H](Cc2ccc(O)cc2)C(=O)N[C@@H](Cc2ccccc2)C(=O)N[C@@H](CCC(N)=O)C(=O)N[C@@H](CC(N)=O)C(=O)N1)C(=O)NCC(N)=O [Terlipressin Acetate] (H-GGGCYFQNCPKG-NH2; disulfide 4-9) | 0
45 | CN(C)[C@@H]1C(O)=C(C(N)=O)C(=O)[C@@]2(O)C(O)=C3C(=O)c4c(O)ccc(Cl)c4[C@@H](O)[C@H]3C[C@@H]12 [Demeclocycline HCl] | 4.3
46 | CCCC(=O)O [Sodium butyrate] | 0
47 | COc1cc2c(cc1Cc1cccc(Cl)c1F)c(=O)c(C(=O)O)cn2[C@H](CO)C(C)C [Elvitegravir (GS-9137, JTK-303)] | 0
48 | CCC(=O)O[C@]1(C(=O)CCl)[C@@H](C)C[C@H]2[C@@H]3C[C@H](F)C4=CC(=O)C=C[C@]4(C)[C@@]3(F)[C@@H](O)C[C@@]21C [Halobetasol Propionate] | 24.3
49 | CN1CCCCC1CCN1c2ccccc2Sc2ccc([S+](C)[O-])cc21 (stereo not drawn) [Mesoridazine Besylate] | 6.43
50 | N=C(N)NCCC[C@H](N)C(=O)O [L-Arginine HCl (L-Arg)] | 0
51 | NCCCC[C@H](N[C@@H](CCc1ccccc1)C(=O)O)C(=O)N1CCC[C@H]1C(=O)O [Lisinopril] | 3.22
52 | CC(=O)/N=c1/sc(S(N)(=O)=O)nn1C [Methazolamide] | 0
53 | CC(=O)O [Potassium acetate] | 11.3
54 | NCc1ccccc1CC(=O)N[C@@H]1C(=O)N2C(C(=O)O)=C(CSc3nnnn3CC(=O)O)CS[C@H]12 [Ceforanide] | 0
55 | COc1ccc(CN(C(=O)[C@@H](N)Cc2c(C)cc(C(N)=O)cc2C)[C@@H](C)c2ncc(-c3ccccc3)[nH]2)cc1C(=O)O [Eluxadoline] | 5.52
56 | Oc1c(Cl)cc(Cl)c(Cl)c1Cc1c(O)c(Cl)cc(Cl)c1Cl [Hexachlorophene] | 0
57 | NC(=O)c1cnccn1 [Pyrazinamide] | 24.2
58 | CCC(C)n1ncn(-c2ccc(N3CCN(c4ccc(OC[C@H]5CO[C@](Cn6cncn6)(c6ccc(Cl)cc6Cl)O5)cc4)CC3)cc2)c1=O (mixture of isomers) [Itraconazole] | 1.14
59 | CC(C)c1cc2c(cc1S(=O)(=O)O)[C@@]1(C)CCC[C@@](C)(C(=O)O)[C@@H]1CC2 [Ecabet sodium] | 10.4
60 | CC(=O)O[C@H]1CC[C@@]2(C)C(=CC[C@@H]3[C@@H]2CC[C@]2(C)C(=O)CC[C@@H]32)C1 [Dehydroepiandrosterone acetate] | 15.8
61 | CCN1CCCC1CNC(=O)c1cc(S(N)(=O)=O)ccc1OC (stereo not drawn) [Sulpiride] | 0
62 | OC(CCN1CCCC1)(c1ccccc1)C1CCCCC1 (stereo not drawn) [Procyclidine HCl] | 6.52
63 | Nc1ccc2cc3ccc(N)cc3nc2c1 [Proflavine Hemisulfate] | 0
64 | CCC(=O)NC[C@@H]1C[C@H]1c1cccc2c1CCO2 [Tasimelteon] | 0
65 | CC(C)(C(=O)c1cccnc1)c1cccnc1 [Metyrapone] | 5.33
66 | CN1CCCC(n2nc(Cc3ccc(Cl)cc3)c3ccccc3c2=O)CC1 (stereo not drawn) [Azelastine HCl] | 20.2
